Blank lines part the entries; values can stand above or below the compound they belong to. Activity calls are given as the source filed them.
Columns and labels:
[1] = molecular target: T1, G-protein coupled receptor 55 (Homo sapiens, UniProt Q9Y2T6); assay: inhibition of LPI-stimulated GPR55 beta-arrestin translocation – imaging, U2OS, beta-arrestin-GFP, LPI agonist, primary screen (AID 2013); assay type: functional;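 also: antagonist potency measured as reduced agonist-driven arrestin aggregation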
[2] = molecular target: Induced myeloid leukemia cell differentiation protein Mcl-1 (Homo sapiens, UniProt Q07820); assay type: functional
Cannabinoid receptor 1 [3] = molecular target: T2, Cannabinoid receptor 1 (Homo sapiens, UniProt P21554); assay: SAR analysis of antagonists of the Cannabinoid Receptor 1 using an Image-Based Assay - Set 2. [Related pubchem assays (depositor defined):AID2013, AID2026]; assay type: functional
[4] = molecular target: T3, G-protein coupled receptor 35 (Homo sapiens, UniProt Q9HC97); assay: SAR analysis of Agonists of the GPR35 Receptor using an Image-Based Assay - Set 2. [Related pubchem assays (depositor defined):AID2013, AID2026]; assay type: functional
Cannabinoid receptor 2 [5] = molecular target: T4, Cannabinoid receptor 2 (Homo sapiens, UniProt P34972); assay: SAR analysis of antagonists of the Cannabinoid Receptor 2 using an Image-Based Assay. [Related pubchem assays (depositor defined):AID2013, AID2026]; assay type: functional
Cannabinoid receptor 1 [6] = molecular target: T2, Cannabinoid receptor 1; assay: SAR analysis of agonists of the Cannabinoid Receptor 1 using an Image-Based Assay - Set 2. [Related pubchem assays (depositor defined):AID2013, AID2026]; assay type: functional
[7] = molecular target: T3, G-protein coupled receptor 35; assay: SAR analysis of Antagonists of the GPR35 Receptor using an Image-Based Assay - Set 3. [Related pubchem assays (depositor defined):AID2013, AID2026]; assay type: functional
[8] = molecular target: T1, G-protein coupled receptor 55; assay: blockade of LPI-induced GPR55 arrestin translocation – imaging, U2OS, beta-arrestin-GFP, LPI agonist, set 2, SAR follow-up (AID 2820); assay type: functional
Cannabinoid receptor 1 [9] = molecular target: T2, Cannabinoid receptor 1; assay: SAR analysis of antagonists of the Cannabinoid Receptor 1 using an Image-Based Assay - Set 4. [Related pubchem assays (depositor defined):AID2013, AID2026]; assay type: functional
[10] = molecular target: T1, G-protein coupled receptor 55; assay: SAR Analysis of Selective Antagonists of GPR55 using an Image-Based Assay - Set 4. [Related pubchem assays (depositor defined):AID2013, AID2026]; assay type: functional
Cannabinoid receptor 2 [11] = molecular target: T4, Cannabinoid receptor 2; assay: SAR analysis of antagonists of the Cannabinoid Receptor 2 using an Image-Based Assay - Set 3. [Related pubchem assays (depositor defined):AID2013, AID2026]; assay type: functional
Cannabinoid receptor 2 [12] = molecular target: T4, Cannabinoid receptor 2; assay: SAR analysis of agonists of the Cannabinoid Receptor 2 using an Image-Based Assay. [Related pubchem assays (depositor defined):AID2013, AID2026]; assay type: functional
Cannabinoid receptor 2 [13] = molecular target: T4, Cannabinoid receptor 2; assay: SAR analysis of agonists of the Cannabinoid Receptor 2 using an Image-Based Assay - Set 3. [Related pubchem assays (depositor defined):AID2013, AID2026]; assay type: functional
[14] = molecular target: Tyrosine-protein phosphatase non-receptor type 11 (Homo sapiens, UniProt Q06124); assay: PTPN11 enzyme inhibitors – biochemical, selectivity assay for STEP inhibitor project, dose response (AID 602367); assay type: functional; conditions: read-out: IC50_Mean
[15] = molecular target: Tyrosine-protein phosphatase non-receptor type 5 (Homo sapiens, UniProt P54829); assay: PTPN5 enzyme inhibition – biochemical, fluorescence intensity, uHTS hits, confirmation (AID 602372); assay type: functional; conditions: read-out: IC50_Mean
[16] = molecular target: T5, Dual specificity protein phosphatase 3 (Homo sapiens, UniProt P51452); assay: VHR phosphatase inhibition, dose response, selectivity assay for STEP inhibitor project, biochemical (AID 602374); assay type: functional; conditions: read-out: IC50_Mean
Caspase-6 = molecular target: T6, Caspase-6 (Homo sapiens, UniProt P55212); assay: inhibition of CASP6 peptide cleavage – biochemical, VEID-R110 fluorescence, cherry-pick, dose response (AID 720632)
T6 sequence (P55212 whole entry): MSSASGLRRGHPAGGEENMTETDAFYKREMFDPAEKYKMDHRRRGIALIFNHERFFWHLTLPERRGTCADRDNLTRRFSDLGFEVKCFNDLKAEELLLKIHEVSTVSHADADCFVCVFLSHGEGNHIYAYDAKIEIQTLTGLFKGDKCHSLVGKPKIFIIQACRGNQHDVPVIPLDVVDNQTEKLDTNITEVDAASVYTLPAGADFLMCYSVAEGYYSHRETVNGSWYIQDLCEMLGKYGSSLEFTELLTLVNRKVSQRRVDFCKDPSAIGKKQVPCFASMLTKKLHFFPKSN

[17] = molecular target: Tyrosine-protein phosphatase non-receptor type 12 (Homo sapiens, UniProt Q05209); assay: SAR Selectivity Analysis of small molecule inhibitors of PEST using pCAP in a fluorescence assay. [Related pubchem assays (depositor defined):AID1779, AID1784, AID2135]; assay type: functional
[18] = molecular target: T7, Tyrosine-protein phosphatase non-receptor type 22 (Homo sapiens, UniProt Q9Y2R2); assay: SAR LYP1 Fluorescent Assay using OMFP substrate for In Vitro dose response studies - Set 3. [Related pubchem assays (depositor defined):AID1779, AID1784, AID2140, AID2686]; assay type: functional
T7 sequence (Q9Y2R2 whole entry): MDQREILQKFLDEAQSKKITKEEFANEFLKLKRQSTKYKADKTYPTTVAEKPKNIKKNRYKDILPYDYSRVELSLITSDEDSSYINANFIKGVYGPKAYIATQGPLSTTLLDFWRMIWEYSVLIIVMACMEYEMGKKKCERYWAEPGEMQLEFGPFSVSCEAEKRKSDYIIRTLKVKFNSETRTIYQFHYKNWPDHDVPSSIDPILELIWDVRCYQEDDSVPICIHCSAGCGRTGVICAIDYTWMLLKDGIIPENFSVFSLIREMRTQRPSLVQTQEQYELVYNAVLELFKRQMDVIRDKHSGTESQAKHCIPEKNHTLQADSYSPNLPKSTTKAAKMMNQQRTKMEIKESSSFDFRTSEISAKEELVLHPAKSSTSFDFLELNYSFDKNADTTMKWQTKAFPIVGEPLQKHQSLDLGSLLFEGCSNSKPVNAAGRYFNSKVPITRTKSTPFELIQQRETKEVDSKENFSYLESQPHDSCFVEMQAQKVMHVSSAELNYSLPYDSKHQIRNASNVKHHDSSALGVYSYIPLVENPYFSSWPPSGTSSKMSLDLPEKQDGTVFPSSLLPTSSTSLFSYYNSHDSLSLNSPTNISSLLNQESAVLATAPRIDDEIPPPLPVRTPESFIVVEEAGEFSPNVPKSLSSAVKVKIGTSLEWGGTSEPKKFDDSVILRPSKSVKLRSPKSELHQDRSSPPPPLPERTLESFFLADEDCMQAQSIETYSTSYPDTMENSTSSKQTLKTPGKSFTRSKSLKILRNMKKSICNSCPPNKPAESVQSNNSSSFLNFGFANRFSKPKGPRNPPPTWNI

[19] = molecular target: T8, Tyrosine-protein phosphatase non-receptor type 7 (Homo sapiens, UniProt P35236); assay: redox-active compounds inhibiting HePTP phosphatase – biochemical, fluorescence, mechanism study (AID 2068); assay type: functional
T8 sequence (P35236 whole entry): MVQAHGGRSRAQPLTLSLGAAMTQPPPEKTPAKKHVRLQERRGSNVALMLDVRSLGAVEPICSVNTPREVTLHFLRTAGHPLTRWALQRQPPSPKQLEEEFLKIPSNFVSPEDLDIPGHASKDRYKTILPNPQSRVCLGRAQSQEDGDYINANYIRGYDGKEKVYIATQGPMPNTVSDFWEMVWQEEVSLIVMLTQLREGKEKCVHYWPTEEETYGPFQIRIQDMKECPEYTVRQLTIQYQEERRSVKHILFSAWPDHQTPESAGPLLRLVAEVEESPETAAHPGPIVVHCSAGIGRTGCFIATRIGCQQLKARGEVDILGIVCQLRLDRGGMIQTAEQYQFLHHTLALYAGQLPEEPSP

[20] = molecular target: T8, Tyrosine-protein phosphatase non-receptor type 7; assay: inhibition of hematopoietic tyrosine phosphatase HePTP – biochemical, set 2, SAR follow-up (AID 449736); assay type: functional
[21] = molecular target: T7, Tyrosine-protein phosphatase non-receptor type 22; assay: inhibition of lymphoid tyrosine phosphatase LYP – biochemical, pCAP fluorogenic substrate, fluorescence, set 3, SAR follow-up (AID 449727); assay type: functional
[22] = molecular target: T5, Dual specificity protein phosphatase 3; assay: SAR VHR1 Fluorescent Assay for In Vitro dose response studies Set 2. [Related pubchem assays (depositor defined):AID1654, AID1661, AID1878]; assay type: functional
[23] = molecular target: T9, Dual specificity protein phosphatase 6 (Rattus norvegicus, UniProt Q64346); assay type: functional;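 also: confirmatory in vitro dose-response testing of MKP-3 inhibition; recombinant His-tagged MKP-3 made in E. coli BL21 with OMFP substrate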
T9 sequence (Q64346 whole entry): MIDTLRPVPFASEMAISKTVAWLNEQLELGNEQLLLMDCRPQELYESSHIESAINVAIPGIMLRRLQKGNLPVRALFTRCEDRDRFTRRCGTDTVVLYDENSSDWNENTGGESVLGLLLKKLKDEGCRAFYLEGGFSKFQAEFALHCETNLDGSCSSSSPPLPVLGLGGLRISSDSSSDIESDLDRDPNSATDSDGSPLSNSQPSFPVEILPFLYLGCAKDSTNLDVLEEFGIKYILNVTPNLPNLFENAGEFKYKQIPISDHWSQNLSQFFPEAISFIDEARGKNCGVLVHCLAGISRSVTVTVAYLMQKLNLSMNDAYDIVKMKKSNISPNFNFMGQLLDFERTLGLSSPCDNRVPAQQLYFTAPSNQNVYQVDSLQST

[24] = molecular target: T7, Tyrosine-protein phosphatase non-receptor type 22; assay: lymphoid phosphatase LYP inhibitors – biochemical, selectivity assay for STEP inhibitor project, dose response (AID 624241); assay type: functional
Troponin, cardiac muscle = Troponin, cardiac muscle (Homo sapiens, UniProt P19429+P45379+P63316); assay: Fluorescence-based biochemical high throughput dose response assay for activators of the calcium sensitivity of cardiac Regulated Thin Filaments (RTF). [Related pubchem assays (depositor defined):AID493008, AID493018, AID504382, AID504383]; assay type: protein-complex assay

IC50 [1]: < 0.5 µM (active) | IC50 [2]: 4.01 µM (active) | IC50 (Cannabinoid receptor 1 [3]): > 32 µM (inactive) | EC50 [4]: > 32 µM (inactive) | IC50 (Cannabinoid receptor 2 [5]): > 32 µM (inactive) | EC50 (Cannabinoid receptor 1 [6]): > 32 µM (inactive) | IC50 [7]: > 32 µM (inactive) | IC50 [8]: 0.136 µM (active) | IC50 (Cannabinoid receptor 1 [9]): 24.6 µM (inactive) | IC50 [10]: 0.263 µM (active) | IC50 (Cannabinoid receptor 2 [11]): > 32 µM (inactive) | EC50 (Cannabinoid receptor 2 [12]): > 32 µM (inactive) | EC50 (Cannabinoid receptor 2 [13]): > 32 µM (inactive) | IC50 [14]: 2.95 µM (active) | IC50 [15]: 28.3 µM (inactive) | IC50 [16]: 2.73 µM (active) | AC50 (Caspase-6): 14.7 µM (active)
Compound: Cc1cc(C)c2nc(-c3ccccn3)cc(C(=O)Nc3ccc(S(=O)(=O)Nc4onc(C)c4C)cc3)c2c1

Compound: CCc1ccc(NC2=NC(=O)/C(=C/c3ccc(OCC(=O)O)cc3)S2)cc1
IC50 [17]: 12.6 µM (active) | IC50 [18]: 31.7 µM (active) | IC50 [19]: 4.53 µM (active) | IC50 [20]: 3.25 µM (active) | IC50 [21]: 12.9 µM (active) | IC50 [22]: 18.9 µM (active) | IC50 [23]: > 100 µM (inactive) | IC50 [14]: 9.52 µM (active) | IC50 [15]: 24.3 µM (inactive) | IC50 [16]: 10.4 µM (active) | IC50 [24]: > 100 µM (inactive)

EC50 (Troponin, cardiac muscle): > 71.5 µM (inactive)
Compound: Cc1ccc(-c2ccc(OC(=O)c3ccc(=O)[nH]c3)c(C)c2)cc1

Reference: ChEMBL document CHEMBL1201862, “PubChem BioAssay data set” (2004)
